{
  "source": "patent US20250042969A1",
  "about": "“ANTIGEN DISCOVERY FOR T CELL RECEPTORS ISOLATED FROM PATIENT TUMORS RECOGNIZING WILD-TYPE ANTIGENS AND POTENT PEPTIDE MIMOTOPES” (The Board of Trustees of the Leland Stanford Junior …, priority 2017, published 2025)",
  "key": {"TCR 4B": {"system": "TCR 4B", "assay": "CD69 activation of SKW-3 T cells expressing TCR 4B co-cultured with peptide-pulsed T2 cells", "conditions": "T2 cells pulsed with 100 μM peptide 3 hours, co-incubated 18 hours, flow cytometry"}, "TCR 2A [1]": {"system": "TCR 2A", "assay": "CD69 activation of SKW-3 T cells expressing TCR 2A co-cultured with peptide-pulsed T2 cells", "conditions": "T2 cells pulsed with 100 μM peptide 3 hours, co-incubated 18 hours, flow cytometry"}, "NKI2": {"system": "NKI2", "assay": "IFNγ production by NKI2-transduced peripheral blood lymphocytes with peptide-pulsed JY cells", "type": "cell-based, human", "conditions": "1:1 with peptide-pulsed JY cells, 5-hour incubation, intracellular staining", "procedure": "CDK4-specific TCRs clone 10 (NKI1) and 17 (NKI2) were derived from TILs of a melanoma patient that were screened with HLA multimers loaded with predicted neoantigens, essentially as described. The variable parts of both TCRs were cloned into a retroviral vector encoding the murine TCR α and β constant domains. FLYRD18 packaging cells were plated in 10 cm dishes at 1.2×10^6 cells/well. After one day, cells were transfected with 10 μg retroviral vector DNA encoding the CDK4 TCRs using 25 μl X-tremeGENE HP DNA (Sigma-Aldrich). After 48 hrs, retroviral supernatant was isolated and transferred to retronectin-coated 24-well plates and centrifuged for 90 minutes at 430 g. PBMCs were activated and selected with anti-CD3/CD28 beads (ThermoFisher) at a bead-to-cell ratio of 3:1. Forty-eight hours after stimulation, T cells were plated at 0.5×10^6 cells/mL on virus-coated plates. Surface expression of the introduced CDK4 TCRs on transduced T cells was measured using APC labeled CDK4 R>L HLA-A*02:01 tetramers in combination with anti-murine VB TCR-PE labeled antibody (BD Biosciences). Cells were analyzed using a FACSCalibur (Becton Dickinson). JY cells were pulsed with the CDK4 peptide or the predicted peptides at the indicated concentrations for 1 hr at 37° C. and then washed two times. […]"}, "TCR 3B [2]": {"system": "TCR 3B", "assay": "CD69 activation of SKW-3 T cells expressing TCR 3B co-cultured with peptide-pulsed T2 cells", "conditions": "T2 cells pulsed with 100 μM peptide 3 hours, co-incubated 18 hours, flow cytometry"}, "[3]": {"system": "SKW-3 cells expressing TCR2A", "assay": "pHLA tetramer staining of SKW-3 cells expressing TCR2A", "type": "binding, human"}, "TCR 2A [4]": {"system": "TCR 2A", "assay": "TCR 2A tetramer staining of yeast expressing single-chain peptide-HLA-A*02:01", "type": "binding, human", "conditions": "400 nM TCR tetramer", "procedure": "(§1) Individual yeast clones isolated from the selections or competent yeast electroporated with reconstructed peptide-HLA constructs identified from the deep sequencing were stained with 400 nM TCR tetramer labeled with SA-647 or SA-647 alone in combination with anti-epitope tag."}, "TCR 3B [5]": {"system": "TCR 3B", "assay": "TCR 3B tetramer staining of yeast expressing single-chain peptide-HLA-A*02:01", "type": "binding, human", "conditions": "400 nM TCR tetramer", "procedure": "as §1"}, "[6]": {"system": "SKW-3 cells expressing TCR 3B", "assay": "pHLA tetramer staining of SKW-3 cells expressing TCR 3B", "type": "binding, human"}},
  "note": "No end group written: not given here.",
  "data": [
    {"substance": "VLEEVDWLI", "values": [
      {"measurement": "CD69 activation of TCR 4B T cell line", "setting": "TCR 4B", "value": "stimulated"}
    ]},
    {"substance": "NVEYYDIKL", "values": [
      {"measurement": "CD69 activation of TCR 4B T cell line", "setting": "TCR 4B", "value": "stimulated"}
    ]},
    {"substance": "VLDFQGQL", "values": [
      {"measurement": "CD69 activation of TCR 2A T cell line", "setting": "TCR 2A [1]", "value": "able to stimulate the receptor"}
    ]},
    {"substance": "KLEQLDWTV", "values": [
      {"measurement": "CD69 activation of TCR 4B T cell line", "setting": "TCR 4B", "value": "stimulated"}
    ]},
    {"substance": "ALDSRSEHFM [top peptide mimotope selected by NKI2]", "values": [
      {"measurement": "IFNγ production by NKI2 transduced T cells", "setting": "NKI2", "value": "stimulated these cells as potently as the CDK4 neoantigen"}
    ]},
    {"substance": "TMETIDWKV", "values": [
      {"measurement": "CD69 activation of TCR 4B T cell line", "setting": "TCR 4B", "value": "stimulated"}
    ]},
    {"substance": "TLEELDWCL", "values": [
      {"measurement": "CD69 activation of TCR 4B T cell line", "setting": "TCR 4B", "value": "stimulated"}
    ]},
    {"substance": "MMDFFNAQM", "values": [
      {"measurement": "CD69 activation of TCR 3B T cell line", "setting": "TCR 3B [2]", "value": "found to stimulate T cells"},
      {"measurement": "CD69 activation of TCR 2A T cell line", "setting": "TCR 2A [1]", "value": "found to stimulate T cells"}
    ]},
    {"substance": "NMEYMTWDV", "values": [
      {"measurement": "CD69 activation of TCR 4B T cell line", "setting": "TCR 4B", "value": "stimulated"}
    ]},
    {"substance": "LLEDLDWDV", "values": [
      {"measurement": "CD69 activation of TCR 4B T cell line", "setting": "TCR 4B", "value": "stimulated"}
    ]},
    {"substance": "MMDFFNAQM-HLA-A*02:01: U2AF2 peptide MMDFFNAQM in complex with HLA-A*02:01, as yeast single-chain trimer or refolded tetramer (not fully specified (C-terminus); also: in complex with HLA-A*02:01 (single-chain trimer or refolded tetramer))", "values": [
      {"measurement": "pHLA tetramer staining of SKW-3 cells expressing TCR2A", "setting": "[3]", "value": "failed to stain"},
      {"measurement": "TCR 2A tetramer staining of yeast", "setting": "TCR 2A [4]", "value": "lack of TCR tetramer staining"},
      {"measurement": "TCR 3B tetramer staining of yeast", "setting": "TCR 3B [5]", "value": "lack of TCR tetramer staining"},
      {"measurement": "pHLA tetramer staining of SKW-3 cells expressing TCR 3B", "setting": "[6]", "value": "failed to stain"}
    ]}
  ]
}
